Several values for one entry are separate records, joined by “and”; a condition that tells them apart may be missing. Equal values may be shown once. Toxic doses and inconclusive results are not listed.
Tested on: P388 leukemia ip, CD2F1 mice, survival T/C
Test: NCI In Vivo Anticancer Drug Screen. Data for tumor model P388 Leukemia (intraperitoneal) in CD2F1 (CDF1) mice
Settings: endpoint: median survival time, higher = longer survival
Method in brief: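 Mice carrying the transplanted tumor received test compound or vehicle. Survival was recorded in each group, and the value is the treated-group measurement divided by that of the vehicle-treated control group.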

[1] = dose: 100.0 mg/kg/injection, schedule: Q01DX001 (ip), vehicle: saline with Tween-80
[2] = dose: 200.0 mg/kg/injection, schedule: Q01DX001 (ip), vehicle: saline with Tween-80
[3] = dose: 12.5 mg/kg/injection, schedule: Q01DX005 (ip), vehicle: Klucel (hydroxypropylcellulose) (HPC)
[4] = dose: 60.0 mg/kg/injection, schedule: Q01DX005 (ip), vehicle: saline with Tween-80
[5] = dose: 120.0 mg/kg/injection, schedule: Q01DX005 (ip), vehicle: saline with Tween-80
[6] = dose: 240.0 mg/kg/injection, schedule: Q01DX005 (ip), vehicle: saline with Tween-80
[7] = dose: 100.0 mg/kg/injection, schedule: Q01DX009 (ip), vehicle: saline
[8] = dose: 200.0 mg/kg/injection, schedule: Q01DX009 (ip), vehicle: saline
[9] = dose: 50.0 mg/kg/injection, schedule: Q04DX003 (ip), vehicle: saline with Tween-80
[10] = dose: 100.0 mg/kg/injection, schedule: Q04DX003 (ip), vehicle: saline with Tween-80
[11] = dose: 200.0 mg/kg/injection, schedule: Q04DX003 (ip), vehicle: saline with Tween-80
[12] = dose: 400.0 mg/kg/injection, schedule: Q04DX003 (ip), vehicle: saline with Tween-80
[13] = dose: 25.0 mg/kg/injection, schedule: Q01DX009 (ip), vehicle: Klucel (hydroxypropylcellulose) (HPC)
[14] = dose: 50.0 mg/kg/injection, schedule: Q01DX009 (ip), vehicle: Klucel (hydroxypropylcellulose) (HPC)
[15] = dose: 100.0 mg/kg/injection, schedule: Q01DX009 (ip), vehicle: Klucel (hydroxypropylcellulose) (HPC)
[16] = dose: 50.0 mg/kg/injection, schedule: Q01DX009 (ip), vehicle: saline
[17] = dose: 50.0 mg/kg/injection, schedule: Q01DX005 (ip), vehicle: saline with Tween-80
[18] = dose: 100.0 mg/kg/injection, schedule: Q01DX005 (ip), vehicle: saline with Tween-80
[19] = dose: 200.0 mg/kg/injection, schedule: Q01DX005 (ip), vehicle: saline with Tween-80

With COCCN[C@@H]1C[C@@](C)(O)Cc2cc3c(c(O)c21)C(=O)c1c(O)cc2c(c1C3=O)O[C@H]1O[C@]2(C)[C@@H](O)[C@H](N(C)C)[C@H]1O the T/C (dose: 2.5 mg/kg/injection, schedule: Q01DX009 (ip), vehicle: other) was 105 % of control, the T/C (dose: 5.0 mg/kg/injection, schedule: Q01DX009 (ip), vehicle: other) was 105 % of control and the T/C (dose: 7.5 mg/kg/injection, schedule: Q01DX009 (ip), vehicle: other) was 120 % of control. The T/C (dose: 10.0 mg/kg/injection, schedule: Q01DX009 (ip), vehicle: other) was 111 % of control and the T/C (dose: 60.0 mg/kg/injection, schedule: Q01DX009 (ip), vehicle: other) was 154 % of control.
In the case of CS(=N)(=O)CCC(N)P(=O)(O)O (centres undefined), the T/C (dose: 50.0 mg/kg/injection, schedule: Q01DX005 (ip), vehicle: saline) is reported as 95 % of control, the T/C (dose: 100.0 mg/kg/injection, schedule: Q01DX005 (ip), vehicle: saline) is reported as 92 % of control and the T/C (dose: 200.0 mg/kg/injection, schedule: Q01DX005 (ip), vehicle: saline) is reported as 100 % of control.
CSc1nc(N)c2cnn(Cc3ccccc3)c2n1 was tested, and the T/C [1] was 102 % of control, the T/C [2] was 100 % of control and the T/C (dose: 400.0 mg/kg/injection, schedule: Q01DX001 (ip), vehicle: saline with Tween-80) was 94 % of control.
For C=CCC1=C(C2CO2)C(=O)c2ccccc2C1=O (centres undefined), the T/C (dose: 6.25 mg/kg/injection, schedule: Q01DX005 (ip), vehicle: Klucel (hydroxypropylcellulose) (HPC)) was 99 % of control and the T/C [3] was 99 % of control.
With N#CC1Sc2ccccc2N1C(=O)OCc1ccccc1 (centres undefined) the T/C [4] was 93 % of control, the T/C [5] was 92 % of control and the T/C [6] was 91 % of control.
With CCOC/C=C\C(C)(C)C the T/C (dose: 50.0 mg/kg/injection, schedule: Q01DX001 (ip), vehicle: saline) was 107 % of control, the T/C (dose: 100.0 mg/kg/injection, schedule: Q01DX001 (ip), vehicle: saline) was 107 % of control and the T/C (dose: 200.0 mg/kg/injection, schedule: Q01DX001 (ip), vehicle: saline) was 99 % of control.
In the case of Nc1cc(Cl)c(N(CCO)C2=NCCN2)c(Cl)c1, the T/C [3] is reported as 92 % of control, the T/C (dose: 25.0 mg/kg/injection, schedule: Q01DX005 (ip), vehicle: Klucel (hydroxypropylcellulose) (HPC)) is reported as 88 % of control and the T/C (dose: 50.0 mg/kg/injection, schedule: Q01DX005 (ip), vehicle: Klucel (hydroxypropylcellulose) (HPC)) is reported as 105 % of control and 89 % of control.
For COc1cc(C2c3cc4c(cc3[C@@H](OC3OC5CO[C@@H](c6cccs6)OC5C(O)C3O)[C@H]3COC(=O)C23)OCO4)cc(OC)c1OC (some centres undefined), the T/C (dose: 2.0 mg/kg/injection, schedule: Q01DX005 (ip), vehicle: saline) was 123 % of control, the T/C (dose: 8.0 mg/kg/injection, schedule: Q01DX005 (ip), vehicle: saline) was 155 % of control and the T/C (dose: 16.0 mg/kg/injection, schedule: Q01DX005 (ip), vehicle: saline) was 175 % of control and 185 % of control. The T/C (dose: 32.0 mg/kg/injection, schedule: Q01DX005 (ip), vehicle: saline) was 203 % of control and the T/C (dose: 64.0 mg/kg/injection, schedule: Q01DX005 (ip), vehicle: saline) was 225 % of control.
For O=S(=O)(O)c1cc(O)c(O)c(S(=O)(=O)O)c1, the T/C [7] was 101 % of control and 95 % of control, the T/C [8] was 100 % of control and 94 % of control and the T/C (dose: 400.0 mg/kg/injection, schedule: Q01DX009 (ip), vehicle: saline) was 100 % of control and 103 % of control. The T/C (dose: 600.0 mg/kg/injection, schedule: Q01DX009 (ip), vehicle: saline) was 104 % of control and 90 % of control.
CC(=O)Nc1ccc(S(=O)(=O)Nc2ccc(O)c3ccccc23)cc1 was tested, and the T/C [9] was 88 % of control, the T/C [10] was 90 % of control and the T/C [11] was 100 % of control. The T/C [12] was 117 % of control.
O=C1CC(=O)N2CCSC2=N1 was tested, and the T/C [9] was 102 % of control, the T/C [10] was 101 % of control and the T/C [11] was 102 % of control. For the same compound, the T/C [12] was 98 % of control.
CCOc1ccc(N2CC(=O)N3CCCN3C(=O)C2)cc1 was tested, and the T/C (dose: 6.25 mg/kg/injection, schedule: Q01DX005 (ip), vehicle: saline with Tween-80) was 96 % of control, the T/C (dose: 12.5 mg/kg/injection, schedule: Q01DX005 (ip), vehicle: saline with Tween-80) was 102 % of control and the T/C (dose: 25.0 mg/kg/injection, schedule: Q01DX005 (ip), vehicle: saline with Tween-80) was 100 % of control.
In the case of COc1cc(C2OC(=O)c3ccccc3S2)ccc1O (centres undefined), the T/C (dose: 6.25 mg/kg/injection, schedule: Q01DX009 (ip), vehicle: Klucel (hydroxypropylcellulose) (HPC)) is reported as 114 % of control, the T/C (dose: 12.5 mg/kg/injection, schedule: Q01DX009 (ip), vehicle: Klucel (hydroxypropylcellulose) (HPC)) is reported as 110 % of control and 119 % of control and the T/C [13] is reported as 114 % of control and 120 % of control. The T/C [14] was 106 % of control and the T/C [15] was 118 % of control.
With Nc1nc(N)c2nnn(C3OC(CO)C(O)C3O)c2n1 (centres undefined) the T/C (dose: 3.0 mg/kg/injection, schedule: Q01DX009 (ip), vehicle: saline) was 119 % of control, the T/C (dose: 12.0 mg/kg/injection, schedule: Q01DX009 (ip), vehicle: saline) was 115 % of control and the T/C (dose: 12.5 mg/kg/injection, schedule: Q01DX009 (ip), vehicle: saline) was 122 % of control. For the same compound, the T/C (dose: 25.0 mg/kg/injection, schedule: Q01DX009 (ip), vehicle: saline) was 105 % of control and the T/C [16] was 96 % of control and 105 % of control.
For O=C(CC(O)CCc1ccc(O)c(O)c1)O[C@H]1Cc2c(O)cc(O)cc2O[C@H]1c1ccc(O)c(O)c1 (some centres undefined), the T/C (dose: 20.0 mg/kg/injection, schedule: Q01DX005 (ip), vehicle: saline with Tween-80) was 105 % of control, the T/C (dose: 40.0 mg/kg/injection, schedule: Q01DX005 (ip), vehicle: saline with Tween-80) was 105 % of control and the T/C (dose: 80.0 mg/kg/injection, schedule: Q01DX005 (ip), vehicle: saline with Tween-80) was 100 % of control.
With C/C(=C(/O)c1ccc(Cl)cc1)c1nc2ccc(Cl)cc2[nH]c1=O the T/C (dose: 60.0 mg/kg/injection, schedule: Q01DX005 (ip), vehicle: Klucel (hydroxypropylcellulose) (HPC)) was 96 % of control and the T/C (dose: 120.0 mg/kg/injection, schedule: Q01DX005 (ip), vehicle: Klucel (hydroxypropylcellulose) (HPC)) was 101 % of control.
CC1(C)OC2OC3C(Br)C(=O)OC3C2O1 (centres undefined) was tested, and the T/C [4] was 90 % of control, the T/C [5] was 94 % of control and the T/C [6] was 97 % of control.
With NC(=Nc1ccccc1)SCCCCCCSC(N)=Nc1ccccc1 the T/C [13] was 100 % of control, the T/C [14] was 102 % of control and the T/C [15] was 100 % of control.
In the case of CCOC(=O)c1cnc(Sc2ncccc2[N+](=O)[O-])nc1N, the T/C (dose: 100.0 mg/kg/injection, schedule: Q04DX003 (ip), vehicle: saline) is reported as 95 % of control, the T/C (dose: 200.0 mg/kg/injection, schedule: Q04DX003 (ip), vehicle: saline) is reported as 98 % of control and the T/C (dose: 400.0 mg/kg/injection, schedule: Q04DX003 (ip), vehicle: saline) is reported as 92 % of control.
For Cn1c(=S)[nH]c2c(c1=O)CCCN2, the T/C (dose: 100.0 mg/kg/injection, schedule: Q01DX001 (ip), vehicle: Klucel (hydroxypropylcellulose) (HPC)) was 101 % of control, the T/C (dose: 200.0 mg/kg/injection, schedule: Q01DX001 (ip), vehicle: Klucel (hydroxypropylcellulose) (HPC)) was 99 % of control and the T/C (dose: 400.0 mg/kg/injection, schedule: Q01DX001 (ip), vehicle: Klucel (hydroxypropylcellulose) (HPC)) was 95 % of control.
For N#CCN(CNC(=O)c1ccccc1)N=O, the T/C (dose: 100.0 mg/kg/injection, schedule: Q04DX002 (ip), vehicle: saline with Tween-80) was 101 % of control and the T/C (dose: 200.0 mg/kg/injection, schedule: Q04DX002 (ip), vehicle: saline with Tween-80) was 105 % of control.
In the case of COc1ccc(Cc2cc3c(cc2OCCOC(C)=O)OCO3)cc1, the T/C [17] is reported as 110 % of control, the T/C [18] is reported as 105 % of control and the T/C [19] is reported as 103 % of control.
In the case of OC1OC(Cn2c3ccccc3c3ccccc32)C(O)C(O)C1O (centres undefined), the T/C (dose: 50.0 mg/kg/injection, schedule: Q01DX001 (ip), vehicle: saline with Tween-80) is reported as 100 % of control, the T/C [1] is reported as 107 % of control and the T/C [2] is reported as 114 % of control.
For COC1C(C)(C)C1(Br)Br (centres undefined), the T/C [17] was 100 % of control, the T/C [18] was 99 % of control and the T/C [19] was 98 % of control.
In the case of O=C(O)C1CSC2(CCCN(Cc3ccccc3)C2)N1 (centres undefined), the T/C [16] is reported as 96 % of control, the T/C [7] is reported as 106 % of control and the T/C [8] is reported as 113 % of control.
With CNC(=O)OCc1c(COC(=O)NC)c(-c2ccc(Cl)c(Cl)c2)n2c1SCC2 the T/C [17] was 106 % of control and 123 % of control.

Source: PubChem BioAssay AID330 (DTP/NCI, 2004)
